Where “and” joins values, the source holds several entries; their conditions need not be identical. Equal entries are not always repeated. Where two headings read alike, the source gives them in different places.
B1: S1: initial shRNA switch targeting EGFP, theophylline aptamer; Table I (pCS630), SEQ ID NO: 48 (nucleic acid)
chain: GGUGCAGAUGAACUUCAGGGUCAGCUCGAGAUACCAGCAUCGACUCUUCGAUGCCCUUGGCAGCUCGGGCUGACCCUGACUAGAGCUGACCCUGAAUCAUCUGCACCUU
B2: S4t: T7-transcribed variant similar to S1, used for in-line probing; SEQ ID NO: 51 (nucleic acid)
chain: GGGUCAGAUGAACUUCAGGGUCAGCUCGAGAUACCAGCAUCGACUCUUCGAUGCCCUUGGCAGCUCGGGCUGACCCUGCUAGAGCUGACCCUGAAUCAUCUGACCCUU
modifications: RNA, phosphodiester; further chemistry not fully specified

Legend:
EGFP = conditions: for Basal expression levels (%): GFP(%): median green fluorescence of transfected vs untransfected cells in same well, without ligand, HEK293T tTA-d2EGFP; for η (dynamic range): ratio of GFP(%) at high (3 mM) and low (1 μM) theophylline concentrations
Description: The functionality of shRNA switches was assessed in mammalian cell culture. Applicants transiently transfected plasmids harboring S1 and various switch controls transcribed from a U6 promoter into HEK293T cells stably expressing EGFP (Abbas-Terki et al, 2002).
In this example, Applicants systematically evaluated the tuning capabilities of shRNA switches with the aid of a mathematical model relating ligand concentration and target gene expression levels. Standard model parameters were incorporated to represent each chemical step from the proposed mechanism (Example 7). […] These assumptions yield the following relationship between relative expression levels of the target gene (f; output) and exogenous ligand concentration (L; input): f=1−e·fshRNA[1+KComp(1+KApt·L)]^−h, (1)
The power of this model lies in the ability to calculate realistic parameter values from a minimal set of experiments: fshRNA can be found in one experiment by measuring the relative knockdown of the target gene induced by an shRNA that contributes the shRNA stem, e can be calculated from basal expression levels from a few shRNA switches that strongly prefer the active conformation, and h can be calculated by generating a ligand response curve with one shRNA switch—as long as administration of the highest ligand concentration results in negligible knockdown of the target gene. The remaining model parameters, KComp and KApt, can be found from the same response curve used to calculate […], since varying KApt only changes the EC50 while varying KComp changes both EC50 and basal expression levels. A summary of the model parameters and how values are experimentally obtained are included in Table III below.
To investigate the validity of the model, Applicants experimentally determined model parameter values as described above: fshRNA was equated to the knockdown achieved with the original shRNA targeting EGFP (sh); e was calculated from the average basal expression levels produced by shRNA switches S5, S7, S9, and S10; and KComp, KApt, and h were determined by a model fit of the theophylline response curve for S1. […] The EC50 is related to KApt and KComp according to the following: EC50=(1+KComp^−1)KApt^−1, (4)
Cell culture and transfection. All cells were maintained at 37° C. in a 5% CO2-humidified incubator. HEK293T, HEK293, HeLa, and HEK293T tTA-d2EGFP cells were maintained in minimal essential medium (MEM) alpha media (Invitrogen) supplemented with 10% fetal bovine serum (FBS) (Invitrogen), whereas MDA-MB-231 cells were maintained in RMPI 1640 with glutamine (Invitrogen) supplemented with 10% FBS. Cells were transfected one day after seeding using Fugene 6 (Roche) according to the manufacturer's instructions, followed by the immediate addition of ligand. HEK293T tTA-d2EGFP were transfected with shRNA vector (250 ng), whereas cells lacking endogenous GFP were cotransfected with shRNA vector (250 ng) and the pcDNA3.1(+) (Invitrogen) harboring the d2EGFP gene (25 ng) (Clontech). One day post-transfection the media and ligand were replaced. Transfected cells were collected three days post-transfection for flow cytometry analysis.
Cell fluorescence analysis. Three days post-transfection, cells were trypsinized and subjected to flow cytometry analysis using the Cell Lab Quanta SC MPL (Beckman Coulter). Cells were first gated twice for (1) viability as assessed by electronic volume (EV) versus side scatter (SS) and (2) green fluorescence above autofluorescence to remove a nonfluorescent subpopulation.

[1] = In-line probing of S4t under varying theophylline concentrations; type: binding
Description: Individual bands from the in-line gel (FIG. 1B) were quantified and normalized to an adjacent constant region to remove bias from inconsistent well loading. C56 bands were normalized to U47 bands, while C74 bands were normalized to U100-G102 bands.
Applicants designed an initial shRNA switch (S1) to target EGFP and respond to theophylline by incorporating an EGFP-targeting guide strand and the theophylline aptamer (Zimmermann et al, 2000) into our switch platform (FIG. 1A). Applicants used in-line probing (Soukup and Breaker, 1999, incorporated herein by reference, and briefly described below) to assess the structural characteristics of a T7-transcribed variant similar to S1 (S4t; FIG. 1B). In-line probing provides structural information from the ligand dependence of spontaneous RNA cleavage. See Materials and Methods section below.
In-line probing. In-line probing was conducted as described previously (Soukup et al, 1999). After heating at 70° C. for 2 min followed by slow cooling to room temperature, 5′ radiolabeled RNAs ([…]) were incubated for 40 hours at 25° C. in varying amounts of theophylline with 50 mM Tris-HCl pH 8.5, 20 mM MgCl2. Reactions were terminated by adding an equal volume of loading buffer (10 M urea, 1.5 mM EDTA). The alkaline hydrolysis ladder was generated by incubating RNA in 50 mM NaHCO3/Na2CO3 pH 9.2, 1 mM EDTA for 6 min at 95° C. The G-specific cleavage ladder was generated by incubating RNA in 1 U RNase T1 (Ambion) with 20 mM sodium citrate pH 5.0, 1 mM EDTA, 7 M urea, and 3 μg yeast RNA for 25 min at 25° C. RNAs were resolved on an 8% denaturing polyacrylamide gel, dried for 90 min at 70° C., then visualized on an FX phosphorimager (BioRAD). Band quantification was performed using the Quantity One software package (BioRAD). To account for well loading variability, quantified band intensities were normalized to an adjacent band of similar intensity showing negligible theophylline dependence.

Molecule	Basal expression levels (%) (EGFP)	η (dynamic range) (EGFP)	also measured
S10: EGFP shRNA switch, larger theophylline aptamer, combined switching strand changes from S4; Table I (pCS808) (CTCGATACCAGCATCGACTCTTCGATGCCCTTGGCAGCGAGCTGACCCTGACTAGA)	29.4	3.60	–
S11: EGFP shRNA switch with theophylline aptamer variant (shorter aptamer stem); Table I (pCS634) (CTCGAGATACCAGCCGAAAGGCCCTTGGCAGCTCGGGCTGACCCTGACTAGA)	20.0	4.20	–
S12: EGFP shRNA switch with theophylline aptamer variant (shorter aptamer stem); Table I (pCS635) (CTCGAGATACCACCGAAAGGCCTTGGCAGCTCGGGCTGACCCTGACTAGA)	13.4	4.06	–
S13: optimized EGFP shRNA switch, smaller theophylline aptamer; Table I (pCS911) (CTCGAGATACCAGCCGAAAGGCCCTTGGCAGCTCGGGCTGACCCTGCTAGA)	16.7	5.61	–
S14: EGFP shRNA switch, smaller theophylline aptamer; Table I (pCS908) (CTCGATACCAGCCGAAAGGCCCTTGGCAGCGAGCTGACCCTGCTAGA)	14.3	2.86	–
S15: EGFP shRNA switch, smaller theophylline aptamer; Table I (pC5909) (CTCGATACCAGCCGAAAGGCCCTTGGCAGCGGGCTGACCCTGCTAGA)	11.2	2.56	–
S16: EGFP shRNA switch, smaller theophylline aptamer; Table I (pCS910) (CTCGATACCAGCCGAAAGGCCCTTGGCAGCGAGCTGACCCTGACTAGA)	21.7	3.85	–
S17: EGFP shRNA switch, smaller theophylline aptamer; Table I (pCS941) (CTCGAGATACCAGCCGAAAGGCCCTTGGCAGCTCGAGCTGACCCTGCTAGA)	17.5	3.12	–
S18: EGFP shRNA switch, smaller theophylline aptamer; Table I (pCS942) (CTCGAGATACCAGCCGAAAGGCCCTTGGCAGCTCGAGCTGACCCTACTAGA)	19.5	3.89	–
S19: EGFP shRNA switch, smaller theophylline aptamer; Table I (pCS1001) (CTCGAGATACCAGCCGAAAGGCCCTTGGCAGCTCGGGCTGACCCTGAACTAGA)	38.3	2.38	–
S20: EGFP shRNA switch, smaller theophylline aptamer; Table I (pCS1002) (CTCGAGATACCAGCCGAAAGGCCCTTGGCAGCTCGGGCTGACCCTGAAGCTAGA)	49.8	1.75	–
S21: EGFP shRNA switch, smaller theophylline aptamer; Table I (pCS1003) (CTCGAGATACCAGCCGAAAGGCCCTTGGCAGCTCGGGCTGACCCTGGCTAGA)	10.8	2.52	–
S22: EGFP shRNA switch, smaller theophylline aptamer; Table I (pCS1004) (CTCGATACCAGCCGAAAGGCCCTTGGCAGCGAGCTGACCCTGAACTAGA)	35.0	2.73	–
S23: EGFP shRNA switch, smaller theophylline aptamer; Table I (pCS1061) (CTCGAGATACCAGCCGAAAGGCCCTTGGCAGCTCGAGCTGATCCTGCTAGA)	16.6	3.30	–
S24: EGFP shRNA switch, smaller theophylline aptamer; Table I (PCS1062) (CTCGAGATACCAGCCGAAAGGCCCTTGGCAGCTCGGGCTGATCCTGCTAGA)	10.8	3.00	–
S25: EGFP shRNA switch, smaller theophylline aptamer; Table I (pCS1063) (CTCGAGATACCAGCCGAAAGGCCCTTGGCAGCTCGGGCTGATCCTGACTAGA)	11.8	2.63	–
B1	33.8	2.71	knockdown of EGFP (EGFP; compared to original shRNA (sh) and scrambled shRNA (neg), flow cytometry): intermediate knockdown; e (RNAi processing efficiency) (EGFP; from average basal expression levels of switches that highly favor the active conformation): 0.85; theophylline dependence of GFP levels (EGFP; in the presence of theophylline): increased in a dose-dependent manner; KComp (partitioning coefficient between active and inactive conformations) (EGFP; least-squares model fit of theophylline response curve): 0.17; h (Hill coefficient) (EGFP; model fit of theophylline response curve): 1.33; KApt (association constant between ligand and formed aptamer) (EGFP; model fit of theophylline response curve in cells): 0.016 µM⁻¹; EC50 (EGFP; read-out: effective concentration to achieve 50% activity (EC50), theophylline concentration, GFP levels, HEK293T cells stably expressing EGFP): ~300 µM; fshRNA (relative knockdown by original shRNA) (EGFP; set by separate transfection with original shRNA targeting EGFP (sh), parameter of the S1 transfer function): 0.94
B2	–	–	KComp solved from in-line assay results ([1]; equation (4) with ratio of apparent KD to KD of aptamer alone): 0.06; ratio of the apparent KD to the KD of the aptamer alone ([1]; theophylline): ~17; Kd ([1]; theophylline, Michaelis-Menten fit, C56 bands normalized to U47, read-out: KD from in-line cleavage at C56): 3.6 µM; Kd ([1]; theophylline, Michaelis-Menten fit, C74 bands normalized to U100-G102, read-out: KD from in-line cleavage at C74): 6.8 µM; Kd ([1]; theophylline, from quantifying cleavage products at two positions, read-out: apparent dissociation constant (KD)): ~5 µM and 5 µM

From patent US8367815B2, “Modular polynucleotides for ligand-controlled regulatory systems” (California Institute of Technology, priority 2007, dated 2013)
